# How the values were obtained:
# human DGKα = target: T1, human DGKα (Homo sapiens, UniProt P23743); experiment: DGKα Biochemical Activity Assay (ADP-Glo);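 note: recombinant enzyme converting diacylglycerol in lipid micelles with ATP, ADP formed detected by luminescence, IC50 from a four-parameter nonlinear fit, geometric mean across experiments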
# T1 construct: purchased Carna Biosciences'; inferred from the same paragraph's 'obtained from Carna Biosciences')
# Text: Alternatively, the enzymatic activity of human DGKα was monitored in a biochemical assay in the presence or absence of compounds and using micelles containing 18:1 Diacylglycerol (DAG), 16:0-18:1 PS (POPS) and Octylglucoside as substrate. DGKα activity led to conversion of DAG and ATP to Phosphatidic Acid (PA) and ADP. Levels of ADP were monitored by bioluminescence using the ADP-Glo Kinase Assay (Promega) and were indicative of DGKα activity.
# Ten nanoliters of test compound dissolved in DMSO at various concentrations were dispensed into a 384-well low volume nonbinding service white plates (Corning #3824) using a Labcyte Echo instrument. Recombinant DGKα Biosciences) in assay buffer (5 μL in 50 mM MOPS [3-(N-morpholino) propanesulfonic acid], pH 7.2; 0.0025% Triton X-100; 1 mM dithiothreitol; 5 mM MgCl2, 200 μM ATP) was added to the compound-containing plate and was incubated for 15 minutes at 25° C. A substrate solution (5 μL in 1.7 mM 1,2-dioleoyl-sn-glycerol [18:1 DAG], 13.5 mM 1-palmitoyl-2-oleoyl-sn-glycero-3-phospho-L-serine [16:0-18:1 PS](POPS), 2 μM CaCl2), 100 mM Octylglucoside (OG), 1 mM DTT) (obtained from Carna Biosciences) diluted in DGK ALPHA assay buffer was then added to start the reaction. Final concentrations were 1 nM DGKα, 100 μM ATP, 1 μM calcium chloride, 0.85 mM 1,2-dioleoyl-sn-glycerol (18:1 DAG), 6.75 mM 1-palmitoyl-2-oleoyl-sn-glycero-3-phospho-L-serine (16:0-18:1 PS) (POPS), 1 μM CaCl2), 50 mM Octylglucoside (OG) and 5 mM MgCl2. The reaction mixture was incubated at 25° C. for 1 hour. ADP-Glo Reagent (10 μL, 10 mM Mg added) provided by the kit was added to each well and incubated at 25° C. for 40 minutes. Then, 20 μL of Kinase Detection Reagent was added and incubated at 25° C. for 40 minutes. Luciferase activity of each well was measured via luminescence on an Envision plate reader (PerkinElmer).
# Least squares curve fittings were performed using a four-parameter variable slope nonlinear regression model. […] IC50 values from multiple experiments were averaged by geometric mean and the standard deviation was calculated.
# [1] = tested on: Jurkat NFκB-luciferase cells; experiment: Jurkat NFκB-Luciferase Assay; type: cell-based; conditions: Homo sapiens; Jurkat NFκB-luciferase cells activated with anti-CD3 antibody (OKT3), 2.5 hrs at 37° C., One-Glo Ex; geometric mean; read-out: DGK NFKb Luciferase EC50;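 note: bioluminescence read-out normalized to DMSO basal activation and to maximum enhancement at 1 µM compound, rising signal indicating stronger T-cell activation through DGKα inhibition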
# Experimental: The activity of compounds was tested in a cell based NFκB reporter assay. Jurkat cells that are stably expressing a luciferase reporter construct under the transcriptional control of a NFκB reporter element were activated with an anti-CD3 antibody and luciferase levels were measured with a bioluminescence readout.
# The day after, the excess antibody was washed out five times with 100 ul/well of assay medium (RPMI supplemented with 10% fetal bovine serum) using a Biotek EL406 instrument and leaving 20 µl of residual volume in each well. Jurkat NFκB-luciferase cells (Promega #) were harvested and diluted to 1 million cells/ml in assay medium. Sixty nanoliters of test compound dissolved in DMSO at various concentrations were dispensed into 384-well v-bottom polypropylene plates (Greiner) using a Labcyte Echo instrument. Thirty microliters of medium containing the Jurkat NFκB-luciferase cells were then dispensed using a Biotek MicroFlo instrument in each well of the compound-containing plate. The medium/cell/compound mixture was mixed with a Bravo instrument and 20 ul/well of the mixture was transferred to the anti-CD3-coated plate. The assay mixture was then incubated for 2.5 hrs at 37° C. followed by equilibration at 25° C. for 30 min. Forty microliters of One-Glo Ex (Promega) was then added to the assay mixture and luciferase activity was read on a Envision plate reader 7 minutes later.
# Bioluminescence data were normalized based on maximum enhancement (1 micromolar of compound) and on basal activation (DMSO) controls. Least squares curve fittings were performed using a four-parameter variable slope nonlinear regression model. […] EC50 values from multiple experiments were averaged by geometric mean and the standard deviation was calculated.
# T1 sequence (P23743 whole entry): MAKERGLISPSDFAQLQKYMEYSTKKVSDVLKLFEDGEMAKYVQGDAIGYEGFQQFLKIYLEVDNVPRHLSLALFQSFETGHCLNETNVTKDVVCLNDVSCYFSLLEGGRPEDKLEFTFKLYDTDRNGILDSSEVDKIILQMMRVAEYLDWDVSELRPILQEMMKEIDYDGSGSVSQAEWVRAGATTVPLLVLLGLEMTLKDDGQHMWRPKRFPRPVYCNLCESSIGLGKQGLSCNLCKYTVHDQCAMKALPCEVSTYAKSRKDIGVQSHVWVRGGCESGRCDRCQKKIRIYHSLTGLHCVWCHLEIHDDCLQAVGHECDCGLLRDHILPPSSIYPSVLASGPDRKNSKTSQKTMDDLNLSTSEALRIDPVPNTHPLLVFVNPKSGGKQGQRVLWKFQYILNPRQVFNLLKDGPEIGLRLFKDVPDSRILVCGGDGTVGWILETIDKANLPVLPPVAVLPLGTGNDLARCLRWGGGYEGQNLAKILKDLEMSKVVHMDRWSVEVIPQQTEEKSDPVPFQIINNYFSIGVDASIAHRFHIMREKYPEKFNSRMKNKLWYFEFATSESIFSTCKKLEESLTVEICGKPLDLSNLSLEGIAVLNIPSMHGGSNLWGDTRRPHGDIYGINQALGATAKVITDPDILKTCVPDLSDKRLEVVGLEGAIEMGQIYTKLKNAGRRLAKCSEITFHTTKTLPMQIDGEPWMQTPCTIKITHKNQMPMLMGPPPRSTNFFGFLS
SMILES,IC50 (human DGKα),EC50 [1]
"[2H]C([2H])([2H])n1c(=O)nc(N2CCOCc3c(C#CC(C)(C)NC(=O)C4(C(F)F)CC4)cccc32)c2c(F)cccc21 [Example 178, 1-(difluoromethyl)-N-(4-(1-(5-fluoro-1-(methyl-d3)-2-oxo-1,2-dihydroquinazolin-4-yl)-1,2,3,5-tetrahydrobenzo[e][1,4]oxazepin-6-yl)-2-methylbut-3-yn-2-yl)cyclopropane-1-carboxamide]",6.36 nM,9.33 nM
"[2H]C([2H])([2H])n1c(=O)nc(N2CCOCc3c(C#CC(C)(C)NC(=O)C(C)(C)C(F)F)cccc32)c2c(F)cccc21 [Example 179, 3,3-difluoro-N-(4-(1-(5-fluoro-1-(methyl-d3)-2-oxo-1,2-dihydroquinazolin-4-yl)-1,2,3,5-tetrahydrobenzo[e][1,4]oxazepin-6-yl)-2-methylbut-3-yn-2-yl)-2,2-dimethylpropanamide]",3.48 nM,15.1 nM
"[2H]C([2H])([2H])n1c(=O)nc(N2CCOCc3c(C#CC(C)(C)NC(=O)C4(C(C)(F)F)CC4)cccc32)c2c(F)cccc21 [Example 180, 1-(1,1-difluoroethyl)-N-(4-(1-(5-fluoro-1-(methyl-d3)-2-oxo-1,2-dihydroquinazolin-4-yl)-1,2,3,5-tetrahydrobenzo[e][1,4]oxazepin-6-yl)-2-methylbut-3-yn-2-yl)cyclopropane-1-carboxamide]",4.63 nM,7.56 nM

# Source: patent US11932634B2 (Gilead Sciences, Inc., priority 2021, dated 2024)
